Entries after “also recorded” stand apart in the source; their conditions may differ.
What was measured:
pregnant rats = experiment: Assessment of compound teratogenicity; type: in vivo; settings: for teratogenic activity / fetal malformations: 0.66 micomoles/kg single oral bolus at E9.25, fetuses at E21.5
Procedure: Assessment of Compound Teratogenicity. Female rats (Harlan Sprague-Dawley, Madison, Wis. approximately 200 to 250 g in weight) were maintained on normal laboratory rat chow and mated with normal rats of the same strain. Pregnant rats were given a single oral bolus dose of compound dissolved in Wesson® corn oil. Each dose was 60-100 μL. The doses were given at day 9.25. Each […] was maintained under standard laboratory conditions until euthanasia at embryonic day 21.5. The fetuses were removed. Fetuses with a heartbeat were determined to be alive. The number of live and dead fetuses were recorded. The number of resorption sites was also recorded. The live fetuses were examined for gross external malformations. All animals were maintained in accordance with protocol approved by the University of Wisconsin-Madison animal care committee.

MCF-7 cells [1] = experiment: TUNEL assay (DNA fragmentation); type: cell-based, human; settings: for activity in DNA fragmentation study: compared with 4-HPTTNPB, studies 'may be performed'; for induction of apoptosis / DNA fragmentation: MCF-7 cells, 72 hours, 4-HPTTNPB and 4-HBTTNPB at the highest doses
Procedure: (§1) Cell growth inhibition and TUNEL assays. […] The cells were plated at 50,000 cells/well in 12-well plates. The wells were dosed with varying amounts of retinoid compounds. At cell harvest, propidium iodide was added. Half of the cells were used to determine the number of live and dead cells after adding fluorescein diacetate, which yields a fluorescent product upon cleavage by metabolically active cells. The other half were fixed in 4% paraformaldehyde, dried on aminosilane coated slides and used to determine TUNEL and propidium iodide staining.

[2] = system: T1, RARalpha, RARbeta and RARgamma; experiment: Nuclear RAR competition binding assay ([3H]-all-trans-RA, hydroxylapatite); parameters: species or system human RARalpha and RARgamma, murine RARbeta; settings: for competition binding to RARs: compared with 4-HPTTNPB, studies 'may be performed'; for competition with [3H]-all-trans-RA for binding to the RARs: RAR types alpha, beta and gamma, stated collectively
T1 construct: fused on or other part: RARalpha was expressed as a fusion protein in E. coli
Procedure: Nuclear Retinoid Receptor (RAR/RXR) Binding. Competition of retinoids with [^3H]-all-trans-RA for binding to RARalpha, RARbeta and RARgamma and with [^3H]-9-cis-RA for binding to RXRgamma was determined using an in vitro ligand binding assay. (See Clagett-Dame et al., Methods for generating and characterizing retinoid receptors from E. coli and insect cell expression systems, Meth. Enzymol., 282:13-14 (1997)). Recombinant human RARalpha was expressed as a fusion protein in E. coli (see Repa J J et al., All-trans retinol is a ligand for the retinoic acid receptors, Proc Natl Acad Sci USA, 90:7293-7297 (1993)). […] Radiolabeled ligands were added to receptor-containing extracts in the absence and presence of increasing concentrations of competing ligands followed by separating ligand bound to the receptor from that free in solution using a hydroxylapatite (HAP) assay.

RXRgamma = target: T2, RXRgamma (Mus musculus, UniProt P28705); experiment: Nuclear RXR competition binding assay ([3H]-9-cis-RA, hydroxylapatite); parameters: species or system murine; settings: for competition binding to RXRs: compared with 4-HPTTNPB, studies 'may be performed'
T2 construct: made in house; host or cells: insect cells infected with baculovirus expression vectors; nuclear extracts
T2 sequence (P28705 1-463): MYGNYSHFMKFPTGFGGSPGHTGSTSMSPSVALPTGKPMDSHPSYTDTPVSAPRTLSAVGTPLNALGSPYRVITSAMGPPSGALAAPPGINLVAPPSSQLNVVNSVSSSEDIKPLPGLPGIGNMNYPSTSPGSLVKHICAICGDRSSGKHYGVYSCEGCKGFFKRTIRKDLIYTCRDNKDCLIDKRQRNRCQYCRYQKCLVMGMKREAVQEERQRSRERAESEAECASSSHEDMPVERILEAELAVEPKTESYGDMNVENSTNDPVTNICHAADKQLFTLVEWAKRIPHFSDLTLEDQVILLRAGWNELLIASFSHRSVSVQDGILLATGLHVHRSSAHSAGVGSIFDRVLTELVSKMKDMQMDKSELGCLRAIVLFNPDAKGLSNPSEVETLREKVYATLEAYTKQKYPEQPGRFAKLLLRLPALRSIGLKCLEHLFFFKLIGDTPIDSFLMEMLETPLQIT
Procedure: Nuclear Retinoid Receptor (RAR/RXR) Binding. Competition of retinoids with [^3H]-all-trans-RA for binding to RARalpha, RARbeta and RARgamma and with [^3H]-9-cis-RA for binding to RXRgamma was determined using an in vitro ligand binding assay. […] Radiolabeled ligands were added to receptor-containing extracts in the absence and presence of increasing concentrations of competing ligands followed by separating ligand bound to the receptor from that free in solution using a hydroxylapatite (HAP) assay.

[3] = system: DMBA-induced mammary tumors; experiment: Inhibition of DMBA-induced mammary tumors; type: in vivo; settings: studies 'may be performed'
MCF-7 cells [4] = experiment: Cell growth inhibition assay; type: cell-based, human; settings: for cell growth inhibition, MCF-7: compared with 4-HPTTNPB, assays 'may be performed'; for response of MCF-7 cells (live cells / cell death): single treatment, 72 hours
Procedure: as §1
Cell culture. The human mammary carcinoma cell line, MCF-7, may be obtained from the American Type Culture Collection (Mannassas, Va.). MCF-7 cells may be maintained in DMEM (Sigma-Aldrich) medium supplemented with 4 g/L glucose, 3.7 g/L sodium bicarbonate and 10% fetal calf serum.
Assay for cell growth inhibition. Cells are plated in flasks/wells of a tissue culture dish. After 24 hours, cells are dosed with a compound of the present invention at varying concentrations, and after 72 hours, the cells are removed from flasks/plates and counted. Fluorescence (due to staining of cells with fluorescein diacetate) was used to count the number of live cells. Phase-contrast microscopy is used to count the total number of cells.

[5] = system: F9-RARE-lacZ reporter cell line; experiment: F9 reporter gene assay; type: cell-based; settings: for potency in activating the reporter system compared with atRA and TTNPB: versus atRA and TTNPB
From the text: Reporter gene assay. […] Data were normalized for total protein using the method set forth in Bradford M M, Anal Biochem, 72:248-254 (1976).

[6] = TTNPB: at concentrations above 10^-6 M, 4-HPTTNPB and 4-HPR: at the highest concentration

Compound	competition binding to RARs [2]	competition binding to RXRs (RXRgamma)	toxicity in DMBA-induced mammary tumor studies [3]	cell growth inhibition, MCF-7 (MCF-7 cells [4])	induction of apoptosis / DNA fragmentation (MCF-7 cells [1])	competition with [3H]-all-trans-RA for binding to the RARs [2]	competition with [3H]-9-cis-RA for binding to RXRgamma (RXRgamma; [6])	response of MCF-7 cells (live cells / cell death) (MCF-7 cells [4])	also measured
C/C(=C\c1ccc(C(=O)Cc2ccc(OC3OC(C(=O)O)C(O)C(O)C3O)cc2)cc1)c1ccc2c(c1)C(C)(C)CCC2(C)C (stereo not shown) [Compound 25]	only slightly better at binding to RARs than 4-HPTTNPB	no better at binding to RXRs than 4-HPTTNPB	little, if any, toxicity	inhibits growth of MCF-7 cells in a dose-dependent manner; also recorded: less active than 4-HPTTNPB	–	–	–	–	teratogenic potential / embryotoxicity (pregnant rats; 'the data will demonstrate'): little, if any, observable embrotoxicity; activity in DNA fragmentation study (MCF-7 cells [1]): less active than 4-HPTTNPB
C/C(=C\c1ccc(C(=O)Nc2ccc(O)cc2)cc1)c1ccc2c(c1)C(C)(C)CCC2(C)C [4-HPTTNPB, E-4-[2-methyl-2-(1,1,4,4-tetramethyl-1,2,3,4-tetrahydronapth-7-yl)-vinyl]-benzoic acid 4-hydroxyanilide]	–	–	–	–	very active	competed poorly; also recorded: did not show any significant binding	almost no competition	dose-dependent decrease	teratogenic activity / fetal malformations (pregnant rats): all profoundly malformed; percentage of the fetuses at embryonic day 21.5 either dead or resorbed (pregnant rats; 0.66 micomoles/kg single oral bolus at E9.25, three pregnant rats): > 80%; potency in activating the reporter system compared with atRA and TTNPB [5]: around 100 fold less potent
C/C(=C\c1ccc(C(=O)Cc2ccc(O[C@@H]3O[C@H](CO)[C@@H](O)[C@H](O)[C@H]3O)cc2)cc1)c1ccc2c(c1)C(C)(C)CCC2(C)C [Compound 33, E-4-[2-methyl-2-(1,1,4,4-tetramethyl-1,2,3,4-tetrahydronaphth-7-yl)-vinyl]-phenyl-2′-(4′-beta-D-glucopyranosyloxyphenyl)-1′-ethanone]	only slightly better at binding to RARs than 4-HPTTNPB	no better at binding to RXRs than 4-HPTTNPB	little, if any, toxicity	inhibits growth of MCF-7 cells in a dose-dependent manner	–	–	–	–	teratogenic potential / embryotoxicity (pregnant rats; rat, in vivo): little, if any, observable embrotoxicity
C/C(=C\c1ccc(C(=O)Cc2ccc(O)cc2)cc1)c1ccc2c(c1)C(C)(C)CCC2(C)C [4-HBTTNPB, E-4-[2-methyl-2-(1,1,4,4-tetramethyl-1,2,3,4-tetrahydronapth-7-yl)-vinyl]-phenyl-2′-(4′-hydroxyphenyl)-1′-ethanone]	bind only very weakly	only slight binding competition	little, if any, toxicity	–	very active	competed poorly	–	dose-dependent decrease	teratogenic activity / fetal malformations (pregnant rats): devoid of any observable teratogenic activity; teratogenic potential / embryotoxicity (pregnant rats; 'the data will demonstrate'): little, if any, observable embrotoxicity; number of dead and resorbed fetuses compared with vehicle group (pregnant rats; rat, in vivo, po): did not differ; activity in DNA fragmentation study (MCF-7 cells [1]): activity similar to 4-HPTTNPB; cell growth inhibition, MCF-7 (MCF-7 cells [4]; listed as 23): inhibits growth of MCF-7 cells in a dose-dependent manner
CCCc1cc2c(cc1/C(C)=C/c1ccc(C(=O)Nc3ccc(O)cc3)cc1)C(C)(C)CCC2(C)C [Compound 12, E-4-[2-methyl-2-(6-propyl-1,1,4,4-tetramethyl-1,2,3,4-tetrahydronapth-7-yl)-vinyl]-benzoic acid 4-hydroxyanilide]	bind only very weakly	only slight binding competition	–	inhibits growth of MCF-7 cells in a dose-dependent manner	–	–	–	–	–
C=C(c1ccc(C(=O)O)cc1)c1cc2c(cc1C)C(C)(C)CCC2(C)C [LGD1069, reference compound]	–	–	–	–	–	–	very effective	–	–
CC1=C(/C=C/C(C)=C/C=C/C(C)=C/C(=O)O)C(C)(C)CCC1 [atRA, all-trans retinoic acid, reference compound]	–	–	–	–	–	–	–	–	activity in the F9 reporter assay (beta-galactosidase) [5]: highly active
CC1=C(/C=C/C(C)=C/C=C/C(C)=C/C(=O)Nc2ccc(O)cc2)C(C)(C)CCC1 [4-HPR, N-(4-hydroxyphenyl) retinamide, reference compound]	–	–	–	–	high degree of apoptosis	only weak competition	almost no competition	cell death	potency of competition for RAR binding compared with TTNPB ([2]; versus TTNPB): 3-4 orders of magnitude less potent; potency in activating the reporter system compared with atRA and TTNPB [5]: approximately 1000 fold less potent
C/C(=C\c1ccc(C(=O)O)cc1)c1ccc2c(c1)C(C)(C)CCC2(C)C [TTNPB, E-4-[2-methyl-2-(1,1,4,4-tetramethyl-1,2,3,4-tetrahydronapth-7-yl)-vinyl]-benzoic acid, reference compound]	–	–	–	–	ineffective	very effective	very weak competition	nearly ineffective	activity in the F9 reporter assay (beta-galactosidase) [5]: highly active; competition with [3H]-9-cis-RA for binding to RXRgamma (RXRgamma; at 10^-4.5 M): 44%

Reference: patent US7968602B2, “4-[(E)-2-(5,6,7,8-tetrahydro-5,5,8,8-tetramethyl-2-napthalenyl)-1-propenyl]benzoic acid analogs and method of manufacture and use thereof” (Wisconsin Alumni Research Foundation, priority 2005, dated 2011)
